In US20250388623A1, “PEPTIDE INHIBITOR AND USE THEREOF” (CHENGDU BRILLIANT INSPIRATION BIOTHERAPEUTICS CO., LTD, priority 2022, published 2025):
Bridge positions count the residues as written; N and C are the ends. Peptide text beside a SMILES is read from it.

Legend:
[1] = test system: TSP-1-dependent TGF-β activation; assay: TSP-1-dependent TGF-β activation in PMA-differentiated THP-1 cells with 293-TGFβ Res reporter cells; assay type: cell-based; conditions: 100 μM polypeptide, 24 h; ratio to negative control group (1.00)
Method: In this Example, the inhibitory effects of the polypeptides on TSP-1-dependent TGF-β activation were detected using a model based on a high TSP-1 expressing cell. In the assay, THP-1 cells (American Typical Culture Collection, ATCC, TIB-20) were induced by phorbol ester (Phorbol 12-myristate 13-acetate, PMA) (Sigma, Catalog No. P1585) and differentiated into macrophage-like cells with distinct macrophage expression profiles.
The experiment was performed as follows: THP-1 cells were inoculated in a 96-well plate, and treated with 300 nM PMA for differentiation and adherence to form macrophage-like cells. 100 μM polypeptide was added (For the negative control group, an equal volume of PBS (the solvent for the polypeptide) was added, while the positive control group received an equal concentration of the polypeptide shown in SEQ ID NO: 50.) The cells were treated for 24 hours, and then a 293 reporter cell strain, 293-TGFβ Res cell strain (novoprotein, Catalog No. XCC03-1), was added for detecting TGF-β activity, and co-cultivated for 24 hours. Bio-Lite Luciferase Assay lysate comprising fluorescent substrate (Vazyme, Catalog No. DD1201-01) was added, and the fluorescent intensity was detected using a multifunctional microplate reader (TECAN, model Infinite 200 Pro). The inhibitory effect of the polypeptide on TGF-β activation was assessed by calculating the ratio of the fluorescence signal from the polypeptide-treated groups to that of the negative control group.

[2] = test system: P-Smad2/3; assay: P-Smad2/3 content in lung tissue, BLM mouse fibrosis model; assay type: in vivo; conditions: single intratracheal dose 3 mg/kg on Day 7, lung 24 h later, BLM model group = 100.00
Summary of the method: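 Male C57/6J mice (6–8 weeks, 18–20 g, n=8/group) received intratracheal bleomycin 0.7 USP/kg on Day 1, then a single intratracheal 3 mg/kg peptide dose or saline on Day 7. Values are expressed as the treated/model content ratio.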

[3] = test system: mouse lung fibrosis model induced by bleomycin (BLM); assay: Inflammatory and fibrotic pathology (HE, Masson's trichrome) in BLM mouse fibrosis model; assay type: in vivo; set-up: scale not given here; conditions: for Inflammatory score Mean: 3 mg/kg intratracheal twice weekly x4 from Day 8, Day 21, HE staining, BLM model 2.25, negative control 0.36; for Fibrosis score Mean: 3 mg/kg intratracheal twice weekly x4 from Day 8, Day 21, Masson's trichrome, BLM model 3.25, negative control 1.01
Method: This Example was to assess the inhibitory effect of polypeptides on fibrotic pathology. 6- to 8-week-old male C57/6J mice weighing 18-20 g were used as subjects for the study. The experimental animals were randomized into groups, 6 animals in each group. On the day of modeling (Day 1), a single dose of 0.7 USP/kg of BLM solution was administered via the tracheal route to the BLM group and each peptide-treated group to induce the model. The negative control group received an equal volume of saline. Treatment dosing started on Day 8. Each peptide-treated group received the peptide drug intratracheally at a dosage of 3 mg/kg, while the positive control group received the peptide of SEQ ID NO: 50 at the same dosage, and the administration frequency was twice a week, with a total of 4 administrations. The BLM model group and the negative control group received an equal volume of solvent (saline) as a control. The procedure followed that described in Example 4.
On Day 21, the lung tissues were dissected, washed with saline to remove blood stains, and dried with gauze. Histopathological analysis was then performed on the dissected lung tissues. The lung tissues were perfused with 0.5 mL of paraformaldehyde via the trachea and placed in 4 mL of paraformaldehyde. A small amount of gauze was added to ensure the lung tissues were completely immersed in the fixative solution. The tissues were fixed for more than 24 hours. One lobe of the left lung and four lobes of the right lung were trimmed to the maximum coronal plane, placed in an embedding cassette, dehydrated overnight, and then paraffin-embedded to make 3 μm sections. An autostainer (Leica, model ST5010) was used for Hematoxylin (Herst, lot no. 201905)-Eosin (Chron, lot no.2018070301) (HE) staining, and MASSON'S trichrome (Celestineblue, Chron, lot no. MKCH8129; Aniline blue, Yuanye, lot no. H70J11S115483; Ponceau, Sigma, lot no. SHBM2047) staining. After mounting the sections, they were scanned using a digital panoramic scanner (Zhiyue, model WS-10). For each lung lobe, ≤10 visual fields were captured under a 20× magnification. The severity of inflammation and the severity of fibrosis were assessed using HE staining and Masson's trichrome staining, respectively, to evaluate the inhibitory effects of the polypeptides on inflammatory infiltration and fibrotic deposition at pathological fibrotic sites.

`C[C@@H]1NC(=O)[C@H](CC(=O)O)NC(=O)[C@H](CCC(N)=O)NC(=O)[C@H]([C@@H](C)O)NC(=O)[C@H](CC(N)=O)NC(=O)[C@H](CC(=O)O)NC(=O)[C@H](CCC(=O)O)NC1=O` [SEQ ID NO: 40, cyclo[Thr-Gln-Asp-Ala-Glu-Asp-Asn]] (cyclo(AEDNTQD)) was tested, and the “Mean (relative fluorescence intensity)” value [1] was 0.77 and the “P-Smad2/3 content in lung tissue, ratio to model group, Mean(%)” value ([2]; 3 mg/kg) was 83.20%.
For `CC(=O)N[C@H](C(=O)N[C@H]1CSSC[C@@H](C(=O)O)NC(=O)[C@H](CC(N)=O)NC(=O)[C@H](CC(=O)O)NC(=O)[C@H](CCC(=O)O)NC(=O)[C@H](C)NC(=O)[C@H](CC(=O)O)NC1=O)[C@@H](C)O` [SEQ ID NO: 43, Ac-Thr-cyclo[Cys-Asp-Ala-Glu-Asp-Asn-Cys]] (Ac-TCDAEDNC-OH; disulfide 2-8), the “Mean (relative fluorescence intensity)” value [1] was 0.65, the “Inflammatory score Mean” value [3] was 1.46 and the “Fibrosis score Mean” value [3] was 2.59. For the same compound, the “P-Smad2/3 content in lung tissue, ratio to model group, Mean(%)” value [2] was 49.30%.
`CC(=O)N[C@H](C(=O)N[C@H]1CSSC[C@@H](C(N)=O)NC(=O)[C@H](CC(N)=O)NC(=O)[C@H](CC(=O)O)NC(=O)[C@H](CCC(=O)O)NC(=O)[C@H](C)NC(=O)[C@H](CC(=O)O)NC1=O)[C@@H](C)O` [SEQ ID NO: 44, Ac-Thr-cyclo[Cys-Asp-Ala-Glu-Asp-Asn-Cys]-NH2] (Ac-TCDAEDNC-NH2; disulfide 2-8) was tested, and the “Mean (relative fluorescence intensity)” value [1] was 0.43 and the “P-Smad2/3 content in lung tissue, ratio to model group, Mean(%)” value [2] was 79.93%.
With `C[C@@H]1NC(=O)[C@H]([C@@H](C)O)NC(=O)[C@H](CC(N)=O)NC(=O)[C@H](CC(=O)O)NC(=O)[C@H](CCC(=O)O)NC(=O)[C@@H]2CCCN2C(=O)[C@H](CC(=O)O)NC(=O)[C@H](CCC(N)=O)NC(=O)[C@H]([C@@H](C)O)NC(=O)[C@H](CO)NC1=O` [SEQ ID NO: 46, cyclo[Thr-Gln-Asp-Pro-Glu-Asp-Asn-Thr-Ala-Ser]] (cyclo(ASTQDPEDNT)) the “Mean (relative fluorescence intensity)” value [1] was 0.69 and the “P-Smad2/3 content in lung tissue, ratio to model group, Mean(%)” value [2] was 74.60%.
With “Ac-TQDAEDN-NH2 [SEQ ID NO: 06, Ac-Thr-Gln-Asp-Ala-Glu-Asp-Asn-NH2]” the “Mean (relative fluorescence intensity)” value [1] was 0.65, the “Inflammatory score Mean” value [3] was 1.65 and the “Fibrosis score Mean” value [3] was 2.65. For the same compound, the “P-Smad2/3 content in lung tissue, ratio to model group, Mean(%)” value [2] was 54.89%.
In the case of “Ac-TQDAEDNTASH-NH2 [SEQ ID NO: 33, Ac-Thr-Gln-Asp-Ala-Glu-Asp-Asn-Thr-Ala-Ser-His-NH2]”, the “Mean (relative fluorescence intensity)” value [1] is reported as 0.67, the “Inflammatory score Mean” value [3] is reported as 1.27 and the “Fibrosis score Mean” value [3] is reported as 2.64. For the same compound, the “P-Smad2/3 content in lung tissue, ratio to model group, Mean(%)” value [2] was 71.09%.
“Ac-TQDAEDPTA-NH2 [SEQ ID NO: 22, Ac-Thr-Gln-Asp-Ala-Glu-Asp-Pro-Thr-Ala-NH2]” was tested, and the “Mean (relative fluorescence intensity)” value [1] was 0.74, the “Inflammatory score Mean” value [3] was 1.43 and the “Fibrosis score Mean” value [3] was 2.33. For the same compound, the “P-Smad2/3 content in lung tissue, ratio to model group, Mean(%)” value [2] was 55.32%.
“Ac-TQDAEDPTAS-NH2 [SEQ ID NO: 25, Ac-Thr-Gln-Asp-Ala-Glu-Asp-Pro-Thr-Ala-Ser-NH2]” was tested, and the “Mean (relative fluorescence intensity)” value [1] was 0.73, the “Inflammatory score Mean” value [3] was 1.39 and the “Fibrosis score Mean” value [3] was 2.47. The “P-Smad2/3 content in lung tissue, ratio to model group, Mean(%)” value [2] was 65.07%.
“Ac-TQDPEDNTAS-NH2 [SEQ ID NO: 26, Ac-Thr-Gln-Asp-Pro-Glu-Asp-Asn-Thr-Ala-Ser-NH2]” was tested, and the “Mean (relative fluorescence intensity)” value [1] was 0.68, the “Inflammatory score Mean” value [3] was 0.95 and the “Fibrosis score Mean” value [3] was 2.05. For the same compound, the “P-Smad2/3 content in lung tissue, ratio to model group, Mean(%)” value [2] was 76.78%.
